Assay results reported in patent US5955500A (G. D. Searle & Co., priority 1997, dated 1999).
“And” between values parts separate entries of the source, which are not always exact repeats. Equal entries are not always repeated. Where two headings read alike, the source gives them in different places.

What was measured:
canine heart = details: for AH time / Heart rate / Mean arterial pressure: mean ± SE
Method: Fourteen adult mongrel dogs of either sex weighing between 19 and 25 kg were prepared for chronic electrophysiologic investigation by implanting epicardial electrodes and an indwelling aortic catheter. The dogs were fasted overnight and initially anesthetized with halothane on the day of surgery. After tracheal intubation, anesthesia was maintained with isoflurane and oxygen via positive pressure ventilation to keep end tidal carbon dioxide within the normal range. Muscular relaxation was induced by pancuronium. A right thoracotomy was performed in the fifth intercostal space. Three bipolar electrode pairs were sutured to the epicardial surface of the right atrial appendage and on the right and left ventricular apex (FIG. 5). A bipolar electrode was sutured to the right atrium close to the anatomical region of the sinoatrial node. A bipolar plunge electrode was placed into base of the interventricular septum to record a His bundle electrogram. An indwelling arterial catheter was placed into the aorta through the left femoral artery after surgical exposure of the artery at the inner side of the hind limb. All electrode leads were subcutaneously tunneled and exited through the skin between the scapulae. Incisions were closed in anatomic fashion and standard postoperative methods of analgesia were provided with 0.015 mg/kg of buprenorphine (Buprenex®, Reckitt & Colman, Hull, UK) and two times of 25 mg/kg cefazolin (Cefazolin Sodium®, SoloPak Laboratories, Elk Groove Village, Ill.) and dogs were allowed to recover from surgery for a period of seven days prior to testing.
Electrical signals from the bipolar electrodes, after suitable amplification in a custom built preamplifier (gain 1000), were filtered in a separate custom designed and built common mode rejection amplifier with a bandpass filter of 10-1000 Hz and individually adjusted for signal strength (maximal gain 400). […] Right atrial appendage (RA), right ventricular apex (RVA) and His bundle electrograms (HB) were recorded, simultaneously. […] All measurements of conduction times were made during spontaneous sinus rhythm.
The His bundle electrode (HBE) was advanced into the base of the interatrial septum from the aortic root. The electrode was advanced from a point located just behind and to the right of the origin of the right coronary artery. The HBE was slowly advanced parallel to the aorta, inferiorly and slightly anteriorly until a well discernible His potential was recorded. AV conduction (AH) interval was measured as the time difference (ms) between the onset of the initial rapid deflection in the RA electrogram to the beginning of the His potential in the HB electrogram. His-ventricular (HV) conduction time interval (ms) was measured from the beginning of the His potential (HBE) to the initial deflection of the QRS complex wave (earliest left ventricular activation) in a simultaneously recorded surface ECG lead II.
As an indicator of automaticity, sinus node recovery time (SNRT) was determined by pacing the right atrial appendage (30 s at 180 and 200 beats/min at 2 msec pulse duration; 2×threshold). SNRT was measured from the last pacing spike to the first spontaneous atrial activity on the His bundle electrogram after cessation of pacing (ms).
A timed extrastimulus (S2) was delivered 300 ms after the preceding pacing spike (S1).
Verapamil was dissolved in 5% dextrose and water ([…]).
During the postoperative period, each dog was trained to stand quietly in a sling during electrophysiological monitoring. Prior to measurement, electrical signals in each dog were monitored to verify the absence of spontaneous arrhythmias other-than normal respiratory sinus arrhythmias.
From the resting dog, 5 channel records were obtained at a sampling rate of 1 kHz per channel for 7 min to determine the following conduction intervals: AH, HV, QRS, QT and HR. A corrected QT interval [QTc=QT interval in ms/ (R-R interval in s)^1/2 ] was also calculated.

[1] = pH 5, individual replicates

COc1ccc(CCN(C)CCCC(C#N)(c2ccc(OC)c(OC)c2)C(C)C)cc1OC (racemic) [90/10S]
AH time (canine heart; 0.1 mg/kg i.v., 0 min): 87 ± 6 ms | Heart rate (canine heart; 0.1 mg/kg i.v., 0 min): 111 ± 7 beats per min | Mean arterial pressure (canine heart; 0.1 mg/kg i.v., 0 min): 94 ± 3 mmHg | AH time (canine heart; 0.1 mg/kg i.v., 1 min): 88 ± 6 ms | Heart rate (canine heart; 0.1 mg/kg i.v., 1 min): 103 ± 7 beats per min | Mean arterial pressure (canine heart; 0.1 mg/kg i.v., 1 min): 97 ± 4 mmHg | AH time (canine heart; 0.1 mg/kg i.v., 2 min): 90 ± 6 ms | Heart rate (canine heart; 0.1 mg/kg i.v., 2 min): 104 ± 6 beats per min | Mean arterial pressure (canine heart; 0.1 mg/kg i.v., 2 min): 99 ± 3 mmHg | AH time (canine heart; 0.1 mg/kg i.v., 3 min): 91 ± 6 ms | Heart rate (canine heart; 0.1 mg/kg i.v., 3 min): 101 ± 8 beats per min | Mean arterial pressure (canine heart; 0.1 mg/kg i.v., 3 min): 99 ± 3 mmHg | AH time (canine heart; 0.1 mg/kg i.v., 4 min): 89 ± 6 ms | Heart rate (canine heart; 0.1 mg/kg i.v., 4 min): 101 ± 7 beats per min | Mean arterial pressure (canine heart; 0.1 mg/kg i.v., 4 min): 100 ± 4 mmHg | AH time (canine heart; 0.1 mg/kg i.v., 5 min): 89 ± 7 ms | Heart rate (canine heart; 0.1 mg/kg i.v., 5 min): 103 ± 7 beats per min | Mean arterial pressure (canine heart; 0.1 mg/kg i.v., 5 min): 99 ± 3 mmHg | AH time (canine heart; 0.2 mg/kg i.v., 0 min): 91 ± 7 ms | Heart rate (canine heart; 0.2 mg/kg i.v., 0 min): 123 ± 7 beats per min | Mean arterial pressure (canine heart; 0.2 mg/kg i.v., 0 min): 94 ± 4 mmHg | AH time (canine heart; 0.2 mg/kg i.v., 1 min): 95 ± 8 ms | Heart rate (canine heart; 0.2 mg/kg i.v., 1 min): 124 ± 10 beats per min | Mean arterial pressure (canine heart; 0.2 mg/kg i.v., 1 min): 98 ± 4 mmHg | AH time (canine heart; 0.2 mg/kg i.v., 2 min): 99 ± 8 ms | Heart rate (canine heart; 0.2 mg/kg i.v., 2 min): 116 ± 7 beats per min | Mean arterial pressure (canine heart; 0.2 mg/kg i.v., 2 min): 99 ± 4 mmHg | AH time (canine heart; 0.2 mg/kg i.v., 3 min): 98 ± 7 ms | Heart rate (canine heart; 0.2 mg/kg i.v., 3 min): 113 ± 6 beats per min | Mean arterial pressure (canine heart; 0.2 mg/kg i.v., 3 min): 99 ± 4 mmHg | AH time (canine heart; 0.2 mg/kg i.v., 4 min): 97 ± 7 ms | Heart rate (canine heart; 0.2 mg/kg i.v., 4 min): 116 ± 7 beats per min | Mean arterial pressure (canine heart; 0.2 mg/kg i.v., 4 min): 100 ± 4 mmHg | AH time (canine heart; 0.2 mg/kg i.v., 5 min): 104 ± 7 ms | Heart rate (canine heart; 0.2 mg/kg i.v., 5 min): 118 ± 8 beats per min | Mean arterial pressure (canine heart; 0.2 mg/kg i.v., 5 min): 101 ± 3 mmHg | AH time (canine heart; 0.4 mg/kg i.v., 0 min): 100 ± 9 ms | Heart rate (canine heart; 0.4 mg/kg i.v., 0 min): 145 ± 10 beats per min | Mean arterial pressure (canine heart; 0.4 mg/kg i.v., 0 min): 83 ± 7 mmHg | AH time (canine heart; 0.4 mg/kg i.v., 1 min): 111 ± 10 ms | Heart rate (canine heart; 0.4 mg/kg i.v., 1 min): 134 ± 9 beats per min | Mean arterial pressure (canine heart; 0.4 mg/kg i.v., 1 min): 89 ± 7 mmHg | AH time (canine heart; 0.4 mg/kg i.v., 2 min): 116 ± 10 ms | Heart rate (canine heart; 0.4 mg/kg i.v., 2 min): 128 ± 10 beats per min | Mean arterial pressure (canine heart; 0.4 mg/kg i.v., 2 min): 90 ± 7 mmHg | AH time (canine heart; 0.4 mg/kg i.v., 3 min): 116 ± 12 ms | Heart rate (canine heart; 0.4 mg/kg i.v., 3 min): 128 ± 11 beats per min | Mean arterial pressure (canine heart; 0.4 mg/kg i.v., 3 min): 90 ± 7 mmHg | AH time (canine heart; 0.4 mg/kg i.v., 4 min): 114 ± 9 ms | Heart rate (canine heart; 0.4 mg/kg i.v., 4 min): 129 ± 10 beats per min | Mean arterial pressure (canine heart; 0.4 mg/kg i.v., 4 min): 93 ± 7 mmHg | AH time (canine heart; 0.4 mg/kg i.v., 5 min): 112 ± 10 ms | Heart rate (canine heart; 0.4 mg/kg i.v., 5 min): 125 ± 9 beats per min | Mean arterial pressure (canine heart; 0.4 mg/kg i.v., 5 min): 92 ± 7 mmHg | Sinus node recovery time (SNRT), significance (canine heart; paced at 200 beats/min): significant decrease

COc1ccc(CCN(C)CCCC(C#N)(c2ccc(OC)c(OC)c2)C(C)C)cc1OC (racemic) [compound 90]
Concentration in octanol [1]: 5800 ng/mL and 5290 ng/mL and 4790 ng/mL | Concentration in water [1]: 5900 ng/mL and 6180 ng/mL and 5100 ng/mL
